Test results reported in ChEMBL document CHEMBL5131387, “Discovery and computational studies of 2-phenyl-benzoxazole acetamide derivatives as promising P2Y14R antagonists with anti-gout potential” (Eur J Med Chem, 2022).

The molecules below were run against T1, P2Y purinoceptor 14 (Homo sapiens) (UniProt Q15391) (assay: Antagonist activity at human P2Y14R expressed in human HEK293 cells assessed as inhibition of cAMP level at 100 nM incubated for 30 mins by cAMP-glo assay relative to control). Details: not given.
T1 sequence (whole entry): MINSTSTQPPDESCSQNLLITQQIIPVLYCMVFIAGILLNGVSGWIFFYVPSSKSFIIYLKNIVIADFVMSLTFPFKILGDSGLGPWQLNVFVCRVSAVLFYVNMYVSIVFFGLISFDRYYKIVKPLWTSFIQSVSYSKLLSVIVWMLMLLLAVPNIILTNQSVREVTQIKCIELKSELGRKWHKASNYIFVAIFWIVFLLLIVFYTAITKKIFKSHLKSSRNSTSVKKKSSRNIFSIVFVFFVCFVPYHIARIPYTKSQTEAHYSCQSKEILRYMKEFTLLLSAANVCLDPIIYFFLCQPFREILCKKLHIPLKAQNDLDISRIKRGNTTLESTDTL
Assay type: functional, cell-based
Molecule `O=C(CC1CCOCC1)Nc1ccc(-c2cc3ccccc3o2)cc1` has an inhibition of 36%.
In the case of `CC(C)(C)c1ccc(CC(=O)Nc2ccc(-c3cc4ccccc4o3)cc2)cc1`, the inhibition is reported as 33%.

Same assay, conditions: filed as antagonist
With `O=C(Cc1ccc2c(c1)OCO2)Nc1ccc(-c2cc3ccccc3o2)cc1` the inhibition was 47%.
`O=C(Cc1ccc2c(c1)OCO2)Nc1cccc(-c2nc3cc(Cl)ccc3o2)c1` showed an inhibition of 46.7%.
`O=C(Cc1cccc(OC(F)(F)F)c1)Nc1cccc(-c2nc3cc(Cl)ccc3o2)c1` was tested, and the inhibition was 84%.
`COc1ccc(CC(=O)Nc2cccc(-c3nc4cc(Cl)ccc4o3)c2)cc1` showed an inhibition of 89%.
`Cc1ccc2oc(-c3cccc(NC(=O)Cc4cccc(Cl)c4)c3)nc2c1` was tested, and the inhibition was 44.1%.
`Cc1cccc(CC(=O)Nc2cc(C)cc(-c3nc4cc(Cl)ccc4o3)c2)c1` gave an inhibition of 86.9%.
For `Cc1ccc(CC(=O)Nc2cccc(-c3nc4cc(Cl)ccc4o3)c2)cc1`, the inhibition was 84.6%.
Work on `O=C(Cc1ccc(OC(F)(F)F)cc1)Nc1cccc(-c2nc3ccccc3o2)c1` yielded an inhibition of 91%.
`O=C(Cc1ccc(C(F)(F)F)cc1)Nc1cccc(-c2nc3cc(Cl)ccc3o2)c1` gave an inhibition of 85.5%.
With `Cc1cccc(CC(=O)Nc2cccc(-c3nc4ccccc4o3)c2)c1` the inhibition was 78.5%.
In the case of `O=C(Cc1cccs1)Nc1ccc(-c2cc3ccccc3o2)cc1`, the inhibition is reported as 45%.
`O=C(Cc1ccccc1Br)Nc1cccc(-c2nc3cc(Cl)ccc3o2)c1` was tested, and the inhibition was 72.6%.
`Cc1ccccc1CC(=O)Nc1cccc(-c2nc3ccccc3o2)c1` was tested, and the inhibition was 73.3%.
`Cc1ccc(CC(=O)Nc2cccc(-c3nc4cc(C)ccc4o3)c2)cc1` gave an inhibition of 72.7%.
`Cc1ccc2oc(-c3cccc(NC(=O)Cc4ccc5c(c4)OCO5)c3)nc2c1` gave an inhibition of 55.1%.
`Cc1ccc2oc(-c3cccc(NC(=O)Cc4ccccc4Br)c3)nc2c1` showed an inhibition of 42.1%.
Molecule `Cc1ccc(CC(=O)Nc2cccc(-c3nc4ccccc4o3)c2)cc1` has an inhibition of 85.6%.
`CC(C)(C)c1ccc(CC(=O)Nc2cccc(-c3nc4cc(Cl)ccc4o3)c2)cc1` showed an inhibition of 57%.
`Cc1ccc(CC(=O)Nc2ccc(-c3cc4ccccc4o3)cc2)cc1` showed an inhibition of 72%.
For `O=C(Cc1ccc(C(F)(F)F)cc1)Nc1ccc(-c2cc3ccccc3o2)cc1`, the inhibition was 57%.
Molecule `CC(C)(C)c1ccc(CC(=O)Nc2cccc(-c3nc4ccccc4o3)c2)cc1` has an inhibition of 68%.

What follows are molecules tested against T2, P2Y purinoceptor 14 (Homo sapiens, UniProt Q15391) (assay: Antagonist activity at human P2Y14R expressed in human HEK293 cells assessed as inhibition of cAMP level incubated for 30 mins by cAMP-glo assay). Details: not given.
T2 sequence (Q15391 whole entry): T1 sequence (whole entry)
Assay type: functional, cell-based
In the case of `O=C(Cc1cccc(OC(F)(F)F)c1)Nc1cccc(-c2nc3cc(Cl)ccc3o2)c1`, the IC50 is reported as 12.6 nM.
With `COc1ccc(CC(=O)Nc2cccc(-c3nc4cc(Cl)ccc4o3)c2)cc1` the IC50 was 9.2 nM.
`Cc1cccc(CC(=O)Nc2cc(C)cc(-c3nc4cc(Cl)ccc4o3)c2)c1` was tested, and the IC50 was 9.7 nM.
`Cc1ccc(CC(=O)Nc2cccc(-c3nc4cc(Cl)ccc4o3)c2)cc1` was tested, and the IC50 was 6.7 nM.
In the case of `O=C(Cc1ccc(OC(F)(F)F)cc1)Nc1cccc(-c2nc3ccccc3o2)c1`, the IC50 is reported as 4.8 nM.
Molecule `O=C(Cc1ccc(C(F)(F)F)cc1)Nc1cccc(-c2nc3cc(Cl)ccc3o2)c1` has an IC50 of 6.1 nM.
In the case of `Cc1cccc(CC(=O)Nc2cccc(-c3nc4ccccc4o3)c2)c1`, the IC50 is reported as 21.8 nM.
In the case of `O=C(Cc1ccccc1Br)Nc1cccc(-c2nc3cc(Cl)ccc3o2)c1`, the IC50 is reported as 32.9 nM.
Molecule `Cc1ccccc1CC(=O)Nc1cccc(-c2nc3ccccc3o2)c1` has an IC50 of 9.3 nM.
Work on `Cc1ccc(CC(=O)Nc2cccc(-c3nc4cc(C)ccc4o3)c2)cc1` yielded an IC50 of 18.5 nM.
`Cc1ccc(CC(=O)Nc2cccc(-c3nc4ccccc4o3)c2)cc1` was tested, and the IC50 was 8.7 nM.
`Cc1ccc(CC(=O)Nc2ccc(-c3cc4ccccc4o3)cc2)cc1` showed an IC50 of 42.4 nM.
